# Values quoted from earlier work, collected in patent US11839654B2, “Combination therapy” (Eli Lilly and Company, priority 2018, dated 2023).
# Columns and labels:
# Tg4510 tau mouse model = conditions: Graham et al. 2014; cited from earlier work
# JNPL3 tau mouse model = conditions: Yuzwa et al. 2012; cited from earlier work
smiles,measurement,setting,value
CCN=C1N[C@@H]2[C@@H](O)[C@H](O)[C@@H](CO)O[C@@H]2S1 [Thiamet-G],effect on tau pathology and dystrophic neurites,Tg4510 tau mouse model,reduction in tau pathology and dystrophic neurites
same,effect on motor neuron loss,JNPL3 tau mouse model,slowing motor neuron loss
